This test deals with T1, hAhR (Homo sapiens, UniProt P35869).
T1 construct: Stably integrated DRE-luciferase cell lines were generated by transducing the both cell lines with Cignal XRE luciferase reporter (Qiagen) lentiviral particles; endogenous in cells
T1 sequence (P35869 11-848): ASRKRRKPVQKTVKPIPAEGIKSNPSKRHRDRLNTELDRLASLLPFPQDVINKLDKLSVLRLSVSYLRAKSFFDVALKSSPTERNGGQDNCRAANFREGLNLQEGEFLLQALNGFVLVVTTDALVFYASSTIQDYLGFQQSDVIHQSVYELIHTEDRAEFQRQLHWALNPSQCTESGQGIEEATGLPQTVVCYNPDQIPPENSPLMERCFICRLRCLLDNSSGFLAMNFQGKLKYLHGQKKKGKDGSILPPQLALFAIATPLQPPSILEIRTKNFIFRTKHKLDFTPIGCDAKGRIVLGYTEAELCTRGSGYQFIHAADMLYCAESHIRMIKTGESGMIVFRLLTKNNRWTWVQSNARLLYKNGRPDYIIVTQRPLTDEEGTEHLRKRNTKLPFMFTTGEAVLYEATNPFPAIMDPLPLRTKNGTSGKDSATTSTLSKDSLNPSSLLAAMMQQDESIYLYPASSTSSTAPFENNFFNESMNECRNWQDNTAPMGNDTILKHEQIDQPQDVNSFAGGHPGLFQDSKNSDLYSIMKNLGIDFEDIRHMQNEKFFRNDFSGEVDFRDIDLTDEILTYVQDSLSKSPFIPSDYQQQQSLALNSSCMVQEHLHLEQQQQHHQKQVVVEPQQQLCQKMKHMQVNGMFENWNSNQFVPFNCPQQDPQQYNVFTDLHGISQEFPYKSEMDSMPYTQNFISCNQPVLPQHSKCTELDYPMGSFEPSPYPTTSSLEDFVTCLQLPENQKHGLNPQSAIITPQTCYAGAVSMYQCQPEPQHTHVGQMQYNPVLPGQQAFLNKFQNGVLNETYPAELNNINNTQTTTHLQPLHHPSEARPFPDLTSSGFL
Briefly: AhR DRE-luciferase reporter transcriptional assay, antagonist mode (TCDD-induced). Type of test: cell-based. Particulars: HEPG2 DRE-Luc cells, 3 nM TCDD, 24 hour incubation, relative IC50. The procedure, abridged:
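HepG2 cells carrying a stably integrated DRE-luciferase reporter, in OptiMEM with 0.5% FBS; semi-log compound doses added with 3 nM TCDD, 24 h incubation, firefly luciferase read-out. Percent maximal activity normalised between vehicle ± TCDD; relative IC50 taken as half-reduction between curve plateaus.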
As for `Cc1cc(-c2cc(C)c3ccccc3n2)ccc1NC(=O)c1ccnn1C` [Example 016, 1-Methyl-N-(2-methyl-4-(4-methylquinolin-2-yl)phenyl)-1H-pyrazole-5-carboxamide], the IC50 is 500 to 1000 nM.

Compound `Cc1cc(-c2ccc3cnn(C)c3c2)ccc1NC(=O)c1ccnn1C` [Example 090, 1-Methyl-N-(2-methyl-4-(1-methyl-1H-indazol-6-yl)phenyl)-1H-pyrazole-5-carboxamide] yielded an IC50 of 1000 to 10000 nM. For `Cc1cc(-c2ccc3cc(Br)ccc3n2)ccc1NC(=O)c1ccnn1C` [Example 064, N-(4-(6-bromoquinolin-2-yl)-2-methylphenyl)-1-methyl-1H-pyrazole-5-carboxamide], the IC50 lay in the range of 200 to 500 nM. In the case of `Cc1cc(C(=O)Nc2ccc(-c3ncc4cc(C(F)(F)F)ccc4n3)cc2C)ccn1` [Example 119, 2-methyl-N-(2-methyl-4-(6-(trifluoromethyl)quinazolin-2-yl)phenyl)isonicotinamide] it was less than 200 nM. For `Cc1cc(-c2ccc3cncc(Cl)c3n2)ccc1NC(=O)c1ccnn1C` [Example 104, N-(4-(8-chloro-1,6-naphthyridin-2-yl)-2-methylphenyl)-1-methyl-1H-pyrazole-5-carboxamide], the IC50 is less than 200 nM. In the case of `Cc1cc(-c2ncc3cc(C(F)(F)F)ccc3n2)ccc1N(C)C(=O)c1ccnn1C` [Example 140, N,1-Dimethyl-N-(2-methyl-4-(6-(trifluoromethyl)quinazolin-2-yl)phenyl)-1H-pyrazole-5-carboxamide] it was less than 200 nM; in that of `Cc1cc(-c2ncc3cc(C(F)(F)F)ccc3n2)ccc1N(C)C(=O)c1ccnn1CC(N)=O` [Example 156, 1-(2-amino-2-oxoethyl)-N-methyl-N-(2-methyl-4-(6-(trifluoromethyl)quinazolin-2-yl)phenyl)-1H-pyrazole-5-carboxamide], less than 200 nM; in that of `Cc1cc(-c2ccc3cncc(Cl)c3c2)ccc1NC(=O)c1ccnn1C` [Example 060, N-(4-(4-chloroisoquinolin-6-yl)-2-methylphenyl)-1-methyl-1H-pyrazole-5-carboxamide], 200 to 500 nM. For the compound `Cc1cc(-c2ccc3c(C(F)(F)F)cccc3n2)ccc1NC(=O)c1ccnn1C` [Example 057, 1-methyl-N-(2-methyl-4-(5-(trifluoromethyl)quinolin-2-yl)phenyl)-1H-pyrazole-5-carboxamide], the IC50 was in the range of 200 to 500 nM. Next, `Cc1cc(-c2ccc3cc(F)cc(C4CC4)c3n2)ccc1NC(=O)c1ccnn1C` [Example 053, N-(4-(8-cyclopropyl-6-fluoroquinolin-2-yl)-2-methylphenyl)-1-methyl-1H-pyrazole-5-carboxamide]: 500 to 1000 nM; `Cc1cc(-c2ccc3cc(C(N)=O)ccc3n2)ccc1NC(=O)c1ccnn1C` [Example 074, 2-(3-methyl-4-(1-methyl-1H-pyrazole-5-carboxamido)phenyl)quinoline-6-carboxamide]: 1000 to 10000 nM; `Cc1cc(-c2ncc3nc(C(F)(F)F)cc(C)c3n2)ccc1N(C)C(=O)c1ccnn1CCOP(=O)(O)O` [Example 194, 2-[5-[methyl([2-methyl-4-[8-methyl-6-(trifluoromethyl)pyrido[3,2-d]pyrimidin-2-yl]phenyl])carbamoyl]-1H-pyrazol-1-yl]ethyl disodium phosphate]: 1000 to 10000 nM. In the case of `Cc1cc(C(F)(F)F)nc2cnc(-c3ccc(NC(=O)N4CCOCC4)c(F)c3)nc12` [Example 185, N-(2-fluoro-4-(8-methyl-6-(trifluoromethyl)pyrido[3,2-d]pyrimidin-2-yl)-phenyl)morpholine-4-carboxamide], the IC50 was less than 200 nM.

As for `Cc1cc(-c2ccc3cc(F)cc(C)c3n2)ccc1NC(=O)c1ccnn1C` [Example 052, N-(4-(6-fluoro-8-methylquinolin-2-yl)-2-methylphenyl)-1-methyl-1H-pyrazole-5-carboxamide], the IC50 was less than 200 nM.
